Where a SMILES comes first, the peptide text is derived from it.
What was measured:
[1] = Thermal stability examination: oven at 170° C., HPLC analysis; assay type: physicochemical; details: for degradation: after seven, fifteen or twenty-five minutes heating at about 170° C.; for % Degradation, 7 Minutes (170° C.) / % Degradation, 15 Minutes (170° C.) / Physical Appearance after 25 Minutes at 170° C. / % Degradation, 25 Minutes (170° C.): oven 170° C.; for % Degradation, 7 Minutes (170° C.) / % Degradation, 15 Minutes (170° C.) / % Degradation, 25 Minutes (170° C.): HPLC
Description: Samples of the salts of Examples 1 and 2 having weights equivalent to about 40 mg of APM and reference samples (40 mg) of free base aspartylphenylalanine methyl ester (APM) and the corresponding hydrochloride dihydrogen phosphate (H2 PO4) and bisulfate (HSO4) salts having weights equivalent to about 40 mg APM were placed in individual 10 ml beakers and put in an oven pre-heated to 170° C. The samples were allowed to bake for predetermined times (7, 15 and 25 minutes) after which they were removed from the oven and analyzed by HPLC using the foregoing HPLC methods.

[2] = Taste of baked dipeptide sweetened yellow cakes; details: single blind conditions
Description: A taste test of the baked dipeptide sweetened yellow cakes can also be conducted under standard single blind conditions.
(§1) Yellow cakes were baked following a standard recipe, but substituting a dipeptide sweetener or its salt and Maltrin M-100 (a modified maltodextrin starch bulking agent) for sugar. The liquid ingredients were creamed together then folded into a sifted mixture of the dry ingredients. The resulting dough was placed in a greased 8-inch cake pan and baked at 350° for 40 minutes. Three cakes were baked in this manner; cake 1 contained (APM-H)2 SO4, cake 2 contained APM-HCl, cake 3 contained APM.

[3] = Shelf life determination: accelerated storage, HPLC assay; assay type: physicochemical
Description: Two sets of samples of the APM sulfate salt of Example 1, APM hydrochloride and APM each having a weight equivalent to […] APM were placed in ovens which contained an open beaker of water. The first set of samples was heated at 70° and 100 percent humidity for 14.7 days. The second set of samples was heated at 85° and atmospheric humidity for 14.7 days. The samples were periodically analyzed by the HPLC method as described above in order to determine percent decomposition.

[4] = Thermal stability studies in baked cake: HPLC of core samples; assay type: physicochemical; details: for sweetener recovery: typical cake test, baked at 350° Fahrenheit for about thirty to forty-five minutes
Description: In this test sweetened yellow cakes are prepared following well-known procedures and using the appropriate ingredients but substituting dipeptide sweetener for sugar. Use of examples of salts of the invention and reference dipeptides and salts such as the hydrochloride will produce eight-inch yellow cakes which are ready for sweetener content comparison. The cakes are typically baked at 350° Fahrenheit (about 175° C.) for about thirty to forty-five minutes. Taking core sections of the sample cakes and analyzing for dipeptide sweetener content allows determination of the percent degradation of the form of the dipeptide sweetener used. In a typical thermal stability cake test, a cake baked with the sulfate salt of the invention will have about […] more dipeptide sweetener in it than a cake baked with the hydrochloride salt; compare, for example, about 34 percent sweetener recovery for the sulfate with about 25 percent for the hydrochloride.
as §1
The liquid ingredients included milk (193 g), shortening (54 g), egg (53 g, 1 egg), vanilla (3.6 g); the dry ingredients included flour (167 g), baking powder (6.9 g), salt (3.4 g), maltrin M-100 (126.5 g) dipeptide sweetener salt: (APM-H)2 SO4 (cake 1) (1.2 g), APM-HCl (cake 2) (1.2 g), APM (cake 3) (1.0 g).
Core samples were taken from each of the three cakes and the samples were analyzed by HPLC methods as described in Example 1.

[5] = Rate of dissolution studies in beverage media; assay type: physicochemical; details: for Media Dissolution Times, medium 4: ambient temperature coffee (80 ml); for Media Dissolution Times, medium 4 / Media Dissolution Times, medium 3 / Media Dissolution Times, medium 2: with stirring; for Media Dissolution Times, medium 4 / Media Dissolution Times, medium 1 / Media Dissolution Times, medium 3 / Media Dissolution Times, medium 2: salt equimolar with 57 mg APM; for Media Dissolution Times, medium 1: refrigerated carbonated water (240 ml), without stirring; for Media Dissolution Times, medium 3: refrigerated coffee (80 ml); for Media Dissolution Times, medium 2: refrigerated lemonade with no sugar (240 ml)
Description: Samples of the salts of Examples 1, 2 and the APM hydrochloride and corresponding bisulfate and dihydrogen phosphate salts were employed to determine relative dissolution rates in beverage media. The amount of salt used in each instance was calculated to be equimolar with 57 mg of APM. The tests were conducted in four types of liquid beverage media; (1) refrigerated carbonated water (240 ml), (2) refrigerated lemonade without sugar (240 ml), (3) refrigerated coffee (80 ml), (4) coffee at ambient temperature (80 ml). The dissolution rates in medium 1 were measured without stirring and the rates in 2, 3 and 4 were measured with stirring. Dissolution was deemed complete when solid particles or a cloudy appearing medium were no longer present.

Row | SMILES | degradation [1] | % Degradation, 7 Minutes (170° C.) [1] [%] | % Degradation, 15 Minutes (170° C.) [1] [%] | Physical Appearance after 25 Minutes at 170° C. [1] | % Degradation, 25 Minutes (170° C.) [1] [%] | cake sweetness, panel taste testing [2] | HPLC Assay (% composition) APM, 6.8 days ([3]; 70°, 100 percent humidity) [%] | APM % Initial (APM remaining after 14.7 days relative to the initial APM) ([3]; 70°, 100 percent humidity) [%] | HPLC Assay (% composition) AP, 14.7 days ([3]; 70°, 100 percent humidity) | HPLC Assay (% composition) APM, 14.7 days ([3]; 70°, 100 percent humidity) [%] | HPLC Assay (% composition) APM, 6.8 days ([3]; 85° C., atmospheric humidity) [%] | HPLC Assay (% composition) DKP, 6.8 days ([3]; 85° C., atmospheric humidity) [%] | APM % Initial (APM remaining after 14.7 days relative to the initial APM) ([3]; 85° C., atmospheric humidity) [%] | HPLC Assay (% composition) AP, 14.7 days ([3]; 85° C., atmospheric humidity) | HPLC Assay (% composition) APM, 14.7 days ([3]; 85° C., atmospheric humidity) [%] | HPLC Assay (% composition) DKP, 14.7 days ([3]; 85° C., atmospheric humidity) | HPLC Assay (% composition) APM, Initial ([3]; initial, before storage) [%] | Media Dissolution Times, medium 4 [5] [s] | Media Dissolution Times, medium 1 [5] [s] | Media Dissolution Times, medium 2 [5] | other results
1 | COC(=O)[C@H](Cc1ccccc1)NC(=O)[C@@H](N)CC(=O)O [A, aspartylphenylalanine methyl ester] (H-Asp-Phe-OMe) | ≤ 85% | 0 | 22.2 | light-gray material | 87.6 | little sweetness and a flat taste | 95.3 | 95.9 | 0.21% | 92.6 | 95.2 | 1.6 | 94.9 | .20% | 91.7 | 2.0% | 96.6 | – | – | – | HPLC Assay (% composition) DKP, 6.8 days ([3]; 70°, 100 percent humidity): 1.1%; HPLC Assay (% composition) DKP, 14.7 days ([3]; 70°, 100 percent humidity): 1.2%; HPLC Assay (% composition) DKP, Initial ([3]; initial, before storage): 1.0%
2 | COC(=O)[C@H](Cc1ccccc1)NC(=O)[C@@H](N)CC(=O)O.COC(=O)[C@H](Cc1ccccc1)NC(=O)[C@@H](N)CC(=O)O.O=S(=O)(O)O [Ex. 1, Bis(hydrogen aspartylphenylalanine methyl ester) sulfate] (H-Asp-Phe-OMe) | less than 10% | 1.3 | 0 | white cryst. powder | 5.5 | approximately equal to that of sugar | 83.9 | 96.7 | .20% | 82.1 | 83.0 | 0.15 | 95.4 | .20% | 80.9 | .08% | 84.8 | 22 | 22 | About 0 seconds | sweetener recovery [4]: about 34%; more dipeptide sweetener in cake than a cake baked with the hydrochloride salt ([4]; typical thermal stability cake test): about 50%; dissolution rate relative to the corresponding hydrochloride salt [5]: at least approximately five to six times faster; Media Dissolution Times, medium 3 [5]: 24 s; dissolution of a sweetening amount in refrigerated lemonade [5]: completely dissolve in refrigerated lemonade without stirring; degradation in shelf life stability tests ([3]; about 85° for about 15 days or 70° for about 15 days at 100 percent humidity): less degradation than the hydrochloride salt
3 | COC(=O)[C@H](Cc1ccccc1)NC(=O)[C@@H](N)CC(=O)O.O=P(O)(O)O [D] (H-Asp-Phe-OMe) | – | 0.1 | 60.6 | yellow powder | 86.6 | – | – | – | – | – | – | – | – | – | – | – | – | 600 | – | – | –
4 | COC(=O)[C@H](Cc1ccccc1)NC(=O)[C@@H](N)CC(=O)O.Cl [B, aspartylphenylalanine methyl ester hydrochloride] (H-Asp-Phe-OMe) | at least 45% | 2 | 8.5 | melted, light-brown | 44.7 | – | 77.7 | 93.6 | .36% | 75.1 | 62.1 | 4.0 | 57.3 | 1.6% | 46.0 | 3.2% | 80.2 | 90 | 120 | 52 s | sweetener recovery [4]: about 25%; Media Dissolution Times, medium 3 [5]: 94 s; dissolution of a sweetening amount in refrigerated lemonade [5]: require significant time and stirring to dissolve; HPLC Assay (% composition) AP, 6.8 days ([3]; 70°, 100 percent humidity): .33%; HPLC Assay (% composition) DKP, 6.8 days ([3]; 70°, 100 percent humidity): .25%; HPLC Assay (% composition) DKP, 14.7 days ([3]; 70°, 100 percent humidity): .60%; HPLC Assay (% composition) AP, 6.8 days ([3]; 85° C., atmospheric humidity): 1.1%
5 | COC(=O)[C@H](Cc1ccccc1)NC(=O)[C@@H](N)CC(=O)O.CS(=O)(=O)O [Ex. 2] (H-Asp-Phe-OMe) | about 30% | 0.0 | 0.5 | off white powder | 28.0 | – | – | – | – | – | – | – | – | – | – | – | – | 167 | 168 | 250 s | –
6 | COC(=O)[C@H](Cc1ccccc1)NC(=O)[C@@H](N)CC(=O)O.O=S(=O)(O)O [C, aspartylphenylalanine methyl ester bisulfate] (H-Asp-Phe-OMe) | ≤ 85% | 62.8 | 78.2 | melted colorless | 89.2 | – | – | – | – | – | – | – | – | – | – | – | – | 330 | – | – | –

Source: patent US4439460A, “Dipeptide sweetener sulfate and sulfonate salts” (G. D. Searle & Co., priority 1982, dated 1984)
